Data taken from patent US20130231347A1, “METHOD OF TREATMENT WITH BRAF INHIBITOR” (GLAXOSMITHKLINE INTELLECTUAL PROPERTY (NO.2) LIMITED, priority 2010, published 2013).
Where two headings read alike, the source gives them in different places. Each block holds one molecule with its values, some of them ahead of it.

What was measured:
[1] = tested on: A375 F11 cells; experiment: Cell growth inhibition assay (Cell Titer Glo, 3 days); format: cell-based; conditions: Homo sapiens, 72 h, MEK1 WT, single agent
Procedure: (§1) A clonal isolate, hereinafter referred to as “A375 F11”, was obtained from the A375 cell line (obtained from ATCC), based on increased sensitivity to a BRAF inhibitor. A375 F11 cells were exposed to increasing concentrations of Compound A and maintained in a final concentration of 1.26 μM or 1.6 μM. 12R5-3, 12R8-1, 12R8-3, 16R5-5, 16R6-2, 16R6-3 and 16R6-4 were derived as single cell clones from mixed populations of these A375 F11 cells selected to grow in the presence of Compound A. All cells were grown in RPMI 1640 medium containing 10% Fetal Bovine Serum (FBS).
(§2) All cells were cultured without compound, e.g. Compound A, for a minimum of 72 hours prior to cell plating. Cells were assayed in a 96-well tissue culture plate (NUNC 136102) of RPMI medium containing 10% FBS for all cells at 1,000 cells per well. Approximately 24 hours after plating, cells were exposed to ten, three-fold serial dilutions of compound or the combination of the two agents at a constant molar to molar ratio, e.g. 10:1 Compound A to Compound B, in RPMI media containing 10% FBS. Cells were incubated in the presence of compounds for 3 days. ATP levels were determined by adding Cell Titer Glo® (Promega) according to the manufacturer's protocol. Briefly, Cell Titer Glo® was added each plate, incubated for 30 minutes then luminescent signal was read on the SpectraMax L plate reader with a 0.5 sec integration time. Inhibition of cell growth was estimated after treatment with compound or combination of compounds for three days and comparing the Cell Titer Glo® signal to cells treated with vehicle (DMSO). Cell growth was calculated relative to vehicle (DMSO) treated control wells.
(§3) For single agent and combination treatments, cells were exposed to compounds at a fixed-dose-ratio, and dose response curves were fit to the experimental data and analyzed using regression models.

[2] = tested on: 12R5-1 (A375 F11 clone with acquired resistance to Compound A); experiment: as above; format: cell-based; conditions: Homo sapiens, A-375, 72 h, MEK1 HET 59delK, single agent
Procedure: as §1, §2, §3

[3] = tested on: 12R5-5 (A375 F11 clone with acquired resistance to Compound A); experiment: as above; format: cell-based; conditions: Homo sapiens, A-375, 72 h, MEK1 HET 59delK, single agent
Procedure: as §1, §2, §3

[4] = tested on: 12R5-3 (A375 F11 clone with acquired resistance to Compound A); experiment: as above; format: cell-based; conditions: Homo sapiens, A-375, 72 h, MEK1 WT, single agent
Procedure: as §1, §2, §3

[5] = tested on: 12R8-1 (A375 F11 clone with acquired resistance to Compound A); experiment: as above; format: cell-based; conditions: Homo sapiens, A-375, 72 h, MEK1 WT, single agent
Procedure: as §1, §2, §3

[6] = tested on: 12R8-3 (A375 F11 clone with acquired resistance to Compound A); experiment: as above; format: cell-based; conditions: Homo sapiens, A-375, 72 h, MEK1 WT, single agent
Procedure: as §1, §2, §3

[7] = tested on: 16R6-3 (A375 F11 clone with acquired resistance to Compound A); experiment: as above; format: cell-based; conditions: Homo sapiens, A-375, 72 h, MEK1 P387P/S, single agent
Procedure: as §1, §2, §3

[8] = tested on: 12R9 (A375 F11 line with acquired resistance to Compound A); experiment: as above; format: cell-based; conditions: Homo sapiens, A-375, 72 h, Table 3, 12R9: NRAS Q61Q/R, MEK1 ND, single agent
Procedure: as §1
All cells were cultured without compound, e.g. Compound A, for a minimum of 72 hours prior to cell plating. Cells were assayed in a 96-well tissue culture plate (NUNC 136102) of RPMI medium containing 10% FBS for all cells at 1,000 cells per well. […] ATP levels were determined by adding Cell Titer Glo® (Promega) according to the manufacturer's protocol. Briefly, Cell Titer Glo® was added each plate, incubated for 30 minutes then luminescent signal was read on the SpectraMax L plate reader with a 0.5 sec integration time. […] Cell growth was calculated relative to vehicle (DMSO) treated control wells.
as §3

[9] = tested on: 16R5-5 (A375 F11 clone with acquired resistance to Compound A); experiment: as above; format: cell-based; conditions: Homo sapiens, A-375, 72 h, MEK1 P387P/S, single agent
Procedure: as §1, §2, §3

[10] = tested on: 16R6-2 (A375 F11 clone with acquired resistance to Compound A); experiment: as above; format: cell-based; conditions: Homo sapiens, A-375, 72 h, MEK1 P387P/S, single agent
Procedure: as §1, §2, §3

[11] = tested on: 16R6-4 (A375 F11 clone with acquired resistance to Compound A); experiment: as above; format: cell-based; conditions: Homo sapiens, A-375, 72 h, A146A/T, MEK1 P387P/S, single agent
Procedure: as §1, §2, §3

[12] = tested on: YUSIT1 clones that acquired resistance to Compound A (BRAF V600K); experiment: Cell growth inhibition assay, resistant YUSIT1 clones; format: cell-based, human; conditions: YUSIT1 clones resistant to Compound A
Source text: The YUSIT1 melanoma cells were obtained from Yale Dermatology Cell Culture Facility.

[13] = tested on: A375 F11 clones that acquired resistance to Compound A; experiment: Cell growth inhibition assay, resistant A375 clones taken together; conditions: Homo sapiens
Procedure: as §1, §2, §3

IC50 ([1]; Table 3, F11: NRAS WT, read-out: IC50, Single Agent, Compound C): 98 ± 58 nM
IC50 ([2]; Table 3, 12R5-1: NRAS WT, read-out: IC50, Single Agent, Compound C): 155 ± 130 nM
IC50 ([3]; Table 3, 12R5-5: NRAS WT, read-out: IC50, Single Agent, Compound C): 87 ± 1 nM
IC50 ([4]; Table 3, 12R5-3: NRAS A146A/T, read-out: IC50, Single Agent, Compound C): 159 ± 140 nM
IC50 ([5]; Table 3, 12R8-1: NRAS A146A/T, read-out: IC50, Single Agent, Compound C): 145 ± 47 nM
IC50 ([6]; Table 3, 12R8-3: NRAS A146A/T, n = 1, read-out: IC50, Single Agent, Compound C): 375 nM
IC50 ([7]; Table 3, 16R6-3: NRAS A146A/T, read-out: IC50, Single Agent, Compound C): 162 ± 99 nM
IC50 ([8]; n = 1, read-out: IC50, Single Agent, Compound C): 57 nM
IC50 ([9]; Table 3, 16R5-5: NRAS Q61Q/K, read-out: IC50, Single Agent, Compound C): 91 ± 36 nM
IC50 ([10]; Table 3, 16R6-2: NRAS Q61Q/K, read-out: IC50, Single Agent, Compound C): 111 ± 87 nM
IC50 ([11]; Table 3, 16R6-4: NRAS Q61Q/K, read-out: IC50, Single Agent, Compound C): 213 ± 169 nM
Structure (SMILES): COc1ncc(-c2ccc3nccc(-c4ccnnc4)c3c2)cc1NS(=O)(=O)c1ccc(F)cc1F [Compound C, 2,4-difluoro-N-{2-(methyloxy)-5-[4-(4-pyridazinyl)-6-quinolinyl]-3-pyridinyl}benzenesulfonamide]

IC50 ([1]; F11: NRAS WT, mean ± std, read-out: IC50, Single Agent Effect, Compound B): 2 ± 2 nM
IC50 ([1]; Table 3, F11: NRAS WT, read-out: IC50, Single Agent, Compound B): 6 ± 4 nM
IC50 ([2]; 12R5-1: NRAS WT, read-out: IC50, Single Agent Effect, Compound B): > 1000 nM
IC50 ([2]; Table 3, 12R5-1: NRAS WT, read-out: IC50, Single Agent, Compound B): > 1000 nM
IC50 ([3]; 12R5-5: NRAS WT, read-out: IC50, Single Agent Effect, Compound B): > 1000 nM
IC50 ([3]; Table 3, 12R5-5: NRAS WT, read-out: IC50, Single Agent, Compound B): 315 ± 212 nM
IC50 ([4]; 12R5-3: NRAS A146A/T, read-out: IC50, Single Agent Effect, Compound B): 78 ± 29 nM
IC50 ([4]; Table 3, 12R5-3: NRAS A146A/T, read-out: IC50, Single Agent, Compound B): 132 ± 54 nM
IC50 ([5]; 12R8-1: NRAS A146A/T, read-out: IC50, Single Agent Effect, Compound B): 81 ± 31 nM
IC50 ([5]; Table 3, 12R8-1: NRAS A146A/T, read-out: IC50, Single Agent, Compound B): 56 ± 39 nM
IC50 ([6]; 12R8-3: NRAS A146A/T, read-out: IC50, Single Agent Effect, Compound B): 59 ± 37 nM
IC50 ([6]; Table 3, 12R8-3: NRAS A146A/T, n = 1, read-out: IC50, Single Agent, Compound B): 84 nM
IC50 ([7]; 16R6-3: NRAS A146A/T, read-out: IC50, Single Agent Effect, Compound B): 162 ± 67 nM
IC50 ([7]; Table 3, 16R6-3: NRAS A146A/T, read-out: IC50, Single Agent, Compound B): 137 ± 77 nM
IC50 ([8]; n = 1, read-out: IC50, Single Agent, Compound B): 24 nM
IC50 ([9]; 16R5-5: NRAS Q61Q/K, read-out: IC50, Single Agent Effect, Compound B): 129 ± 54 nM
IC50 ([9]; Table 3, 16R5-5: NRAS Q61Q/K, read-out: IC50, Single Agent, Compound B): 97 nM
IC50 ([10]; 16R6-2: NRAS Q61Q/K, read-out: IC50, Single Agent Effect, Compound B): 99 ± 58 nM
IC50 ([10]; Table 3, 16R6-2: NRAS Q61Q/K, read-out: IC50, Single Agent, Compound B): 339 ± 366 nM
IC50 ([11]; 16R6-4: NRAS Q61Q/K, read-out: IC50, Single Agent Effect, Compound B): > 1000 nM
IC50 ([11]; Table 3, 16R6-4: NRAS Q61Q/K, read-out: IC50, Single Agent, Compound B): 475 ± 587 nM
IC50 ([13]; A-375, read-out: IC50 of the combination, for Compound B): 18 to 39 nM
Structure (SMILES): CC(=O)Nc1cccc(-n2c(=O)n(C3CC3)c(=O)c3c(Nc4ccc(I)cc4F)n(C)c(=O)c(C)c32)c1 [Compound B, N-{3-[3-cyclopropyl-5-(2-fluoro-4-iodo-phenylamino)-6,8-dimethyl-2,4,7-trioxo-3,4,6,7-tetrahydro-2H-pyrido[4,3-d]pyrimidin-1-yl]phenyl}acetamide]
IC50 ([12]; Homo sapiens, single agent, read-out: IC50, cell growth inhibition): 2 to 5 nM
reduced sensitivity compared to the parental YUSIT1 cells ([12]; single agent (FIG. 9)): 3-7 fold

IC50 ([13]; A-375, read-out: IC50, cell growth): > 10000 nM
Structure (SMILES): CCCS(=O)(=O)Nc1ccc(F)c(C(=O)c2c[nH]c3ncc(-c4ccc(Cl)cc4)cc23)c1F [PLX4032, reference compound]
